Tests used:
Assay in all cases: relative viability (nuclei count vs DMSO), 5 days (fraction); higher = more cells survive
CUDC-101 + Bortezomib = compound: C#Cc1cccc(Nc2ncnc3cc(OC)c(OCCCCCCC(=O)NO)cc23)c1 [CUDC-101] + CC(C)C[C@H](NC(=O)[C@H](Cc1ccccc1)NC(=O)c1cnccn1)B(O)O [Bortezomib] (partner 0.002 µM)
Procedure, shortened: (§1)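 Lung cancer cell lines in 1536-well plates got either a single drug or a fixed anchor-drug dose together with five library-drug doses (not always all listed) in √10 steps, by pin tool, on the day after seeding. Nuclei were counted after 5 days, and relative viability is the treated-to-vehicle ratio of nuclei counts. Values are medians of duplicate plates.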

NVP-TAE684 + Decitabine = compound: COc1cc(N2CCC(N3CCN(C)CC3)CC2)ccc1Nc1ncc(Cl)c(Nc2ccccc2S(=O)(=O)C(C)C)n1 [NVP-TAE684] + Nc1ncn([C@H]2C[C@H](O)[C@@H](CO)O2)c(=O)n1 [Decitabine] (partner 2 µM)
Procedure, shortened: as §1

NVP-TAE684 + Tozasertib = compound: COc1cc(N2CCC(N3CCN(C)CC3)CC2)ccc1Nc1ncc(Cl)c(Nc2ccccc2S(=O)(=O)C(C)C)n1 [NVP-TAE684] + Cc1cc(Nc2cc(N3CCN(C)CC3)nc(Sc3ccc(NC(=O)C4CC4)cc3)n2)n[nH]1 [Tozasertib] (partner 0.1 µM)
Procedure, shortened: as §1

CUDC-101 + Pemetrexed = compound: C#Cc1cccc(Nc2ncnc3cc(OC)c(OCCCCCCC(=O)NO)cc23)c1 [CUDC-101] + Nc1nc2[nH]cc(CCc3ccc(C(=O)N[C@@H](CCC(=O)O)C(=O)O)cc3)c2c(=O)[nH]1 [Pemetrexed] (partner 0.2 µM)
Procedure, shortened: as §1

[1] = compound: C1=CC=C2C(=C1)N=C(S2)C(C#N)C3=NC(=NC=C3)NCCC4=CN=CC=C4 + Nc1nc2[nH]cc(CCc3ccc(C(=O)N[C@@H](CCC(=O)O)C(=O)O)cc3)c2c(=O)[nH]1 [Pemetrexed] (partner 0.2 µM)
Procedure, shortened: as §1

## UMC-11
CUDC-101 + Bortezomib; first compound 0.01 µM
  relative viability: 0.918
CUDC-101 + Bortezomib; first compound 0.03162 µM
  relative viability: 0.831
CUDC-101 + Bortezomib; first compound 0.1 µM
  relative viability: 0.468
CUDC-101 + Bortezomib; first compound 0.3162 µM
  relative viability: 0.576
CUDC-101 + Bortezomib; first compound 1 µM
  relative viability: 0.167
NVP-TAE684 + Decitabine; first compound 0.2 µM
  relative viability: 0.582
NVP-TAE684 + Decitabine; first compound 0.6325 µM
  relative viability: 0.581
NVP-TAE684 + Decitabine; first compound 2 µM
  relative viability: 0.346
NVP-TAE684 + Tozasertib; first compound 0.2 µM
  relative viability: 0.234
NVP-TAE684 + Tozasertib; first compound 0.6325 µM
  relative viability: 0.199
NVP-TAE684 + Tozasertib; first compound 2 µM
  relative viability: 0.197
CUDC-101 + Pemetrexed; first compound 0.01 µM
  relative viability: 0.78
CUDC-101 + Pemetrexed; first compound 0.03162 µM
  relative viability: 0.72
CUDC-101 + Pemetrexed; first compound 0.1 µM
  relative viability: 0.639
CUDC-101 + Pemetrexed; first compound 0.3162 µM
  relative viability: 0.415
CUDC-101 + Pemetrexed; first compound 1 µM
  relative viability: 0.219
[1]; first compound 0.01581 µM
  relative viability: 0.79
[1]; first compound 0.05 µM
  relative viability: 0.769
[1]; first compound 0.1581 µM
  relative viability: 0.94
[1]; first compound 0.5 µM
  relative viability: 0.771

— the supplement of paper PMC10307832
